Data: the NIST ThermoML archive (doi:10.1021/je060271a)
“And” between values parts separate entries of the source, which are not always exact repeats. Identical values can stand only once. ± gives the expanded uncertainty stated by the source.

Details: Liquid, Vibrating tube method

CCCCCC(=O)OCC(COC(=O)CCCCC)(COC(=O)CCCCC)COC(=O)CCCCC [pentaerythritol tetrahexanoate]
Details | mass density
283.16 K, 9726 kPa | 1009.7 ± 1.2 kg/m3
283.16 K, 9740.5 kPa | 1009.7 ± 1.2 kg/m3
283.16 K, 11666 kPa | 1010.8 ± 1.2 kg/m3
283.16 K, 11699 kPa | 1010.9 ± 1.2 kg/m3
283.16 K, 11719 kPa | 1011 ± 1.2 kg/m3
283.16 K, 11736 kPa | 1010.9 ± 1.2 kg/m3
283.16 K, 11882 kPa | 1011 ± 1.2 kg/m3
283.16 K, 15896 kPa | 1013.2 ± 1.2 kg/m3
283.16 K, 15917 kPa | 1013.2 ± 1.2 kg/m3
283.16 K, 15934 kPa | 1013.3 ± 1.2 kg/m3
283.16 K, 15952 kPa | 1013.2 ± 1.2 kg/m3
283.16 K, 15973 kPa | 1013.2 ± 1.2 kg/m3
283.16 K, 15990 kPa | 1013.1 ± 1.2 kg/m3
283.16 K, 16007 kPa | 1013.1 ± 1.2 kg/m3
283.16 K, 16028 kPa | 1013.2 ± 1.2 kg/m3
283.16 K, 16047 kPa | 1013.4 ± 1.2 kg/m3
283.16 K, 17073 kPa | 1013.9 ± 1.2 kg/m3
283.16 K, 17091 kPa | 1013.8 ± 1.2 kg/m3
283.16 K, 17101 kPa | 1013.8 ± 1.2 kg/m3
283.16 K, 17102 kPa | 1013.8 ± 1.2 kg/m3
283.16 K, 17103 kPa | 1013.9 ± 1.2 kg/m3
283.16 K, 21750 kPa | 1016.3 ± 1.2 kg/m3
283.16 K, 24165 kPa | 1017.6 ± 1.2 kg/m3
283.16 K, 24256 kPa | 1017.8 ± 1.2 kg/m3
283.16 K, 24293 kPa | 1017.8 ± 1.2 kg/m3
283.16 K, 24310 kPa | 1017.7 ± 1.2 kg/m3
283.16 K, 24348 kPa | 1017.7 ± 1.2 kg/m3
283.16 K, 26923 kPa | 1019 ± 1.2 kg/m3
283.16 K, 26937 kPa | 1019 ± 1.2 kg/m3
303.14 K, 14075 kPa | 997.2 ± 1.2 kg/m3
303.14 K, 21030 kPa | 1001.2 ± 1.2 kg/m3
303.14 K, 32666 kPa | 1007.6 ± 1.2 kg/m3
303.14 K, 32689 kPa | 1007.7 ± 1.2 kg/m3
303.14 K, 32708 kPa | 1007.8 ± 1.2 kg/m3
303.14 K, 32727 kPa | 1007.7 ± 1.2 kg/m3
303.14 K, 32750 kPa | 1007.8 ± 1.2 kg/m3
303.14 K, 32770 kPa | 1007.7 ± 1.2 kg/m3
303.14 K, 32789 kPa | 1007.7 ± 1.2 kg/m3
303.14 K, 34002 kPa | 1008.2 ± 1.2 kg/m3
303.14 K, 34004 kPa | 1008.4 ± 1.2 kg/m3
303.14 K, 34018 kPa | 1008.3 ± 1.2 kg/m3
303.14 K, 34022 kPa | 1008.4 ± 1.2 kg/m3
303.14 K, 34024 kPa | 1008.4 ± 1.2 kg/m3
303.14 K, 34030 kPa | 1008.3 ± 1.2 kg/m3
303.14 K, 34038 kPa | 1008.4 ± 1.2 kg/m3
303.14 K, 34043 kPa | 1008.4 ± 1.2 kg/m3
303.14 K, 34049 kPa | 1008.2 ± 1.2 kg/m3
303.14 K, 34053 kPa | 1008.4 ± 1.2 kg/m3
303.14 K, 34057 kPa | 1008.5 ± 1.2 kg/m3
303.14 K, 34060 kPa | 1008.3 ± 1.2 kg/m3
303.14 K, 34063 kPa | 1008.4 ± 1.2 kg/m3
303.14 K, 34084 kPa | 1008.5 ± 1.2 kg/m3
303.14 K, 34101 kPa | 1008.4 ± 1.2 kg/m3
303.14 K, 34115 kPa | 1008.4 ± 1.2 kg/m3
303.14 K, 34131 kPa | 1008.4 ± 1.2 kg/m3
303.14 K, 34147 kPa | 1008.4 ± 1.2 kg/m3
303.14 K, 34159 kPa | 1008.4 ± 1.2 kg/m3
303.14 K, 34165 kPa | 1008.6 ± 1.2 kg/m3
303.14 K, 34169 kPa | 1008.5 ± 1.2 kg/m3
303.14 K, 34174 kPa | 1008.4 ± 1.2 kg/m3
303.15 K, 191.8 kPa | 988.6 ± 1.2 kg/m3
303.15 K, 192.2 kPa | 988.4 ± 1.2 kg/m3
303.15 K, 192.4 kPa | 988.5 ± 1.2 kg/m3
303.15 K, 192.5 kPa | 988.3 ± 1.2 kg/m3
303.15 K, 192.7 kPa | 988.4 ± 1.2 kg/m3
303.15 K, 193.2 kPa | 988.5 ± 1.2 kg/m3
303.15 K, 193.4 kPa | 988.5 ± 1.2 kg/m3 and 988.4 ± 1.2 kg/m3
303.15 K, 193.6 kPa | 988.6 ± 1.2 kg/m3
303.15 K, 193.9 kPa | 988.5 ± 1.2 kg/m3
303.15 K, 194.8 kPa | 988.4 ± 1.2 kg/m3 and 988.5 ± 1.2 kg/m3
303.15 K, 195 kPa | 988.5 ± 1.2 kg/m3
303.15 K, 195.1 kPa | 988.5 ± 1.2 kg/m3
303.15 K, 195.8 kPa | 988.6 ± 1.2 kg/m3 and 988.4 ± 1.2 kg/m3
303.15 K, 196 kPa | 988.5 ± 1.2 kg/m3
303.15 K, 196.2 kPa | 988.3 ± 1.2 kg/m3
303.15 K, 196.3 kPa | 988.5 ± 1.2 kg/m3
303.15 K, 196.5 kPa | 988.5 ± 1.2 kg/m3 and 988.6 ± 1.2 kg/m3
303.15 K, 198.2 kPa | 988.4 ± 1.2 kg/m3 and 988.5 ± 1.2 kg/m3
303.15 K, 198.4 kPa | 988.4 ± 1.2 kg/m3
303.15 K, 198.8 kPa | 988.4 ± 1.2 kg/m3 and 988.5 ± 1.2 kg/m3
303.15 K, 198.9 kPa | 988.5 ± 1.2 kg/m3
303.15 K, 199.1 kPa | 988.5 ± 1.2 kg/m3
303.15 K, 199.3 kPa | 988.4 ± 1.2 kg/m3
303.15 K, 199.6 kPa | 988.5 ± 1.2 kg/m3 and 988.6 ± 1.2 kg/m3
303.15 K, 200.9 kPa | 988.4 ± 1.2 kg/m3
303.15 K, 202.8 kPa | 988.4 ± 1.2 kg/m3
303.15 K, 203.1 kPa | 988.5 ± 1.2 kg/m3
303.15 K, 203.3 kPa | 988.5 ± 1.2 kg/m3
303.15 K, 203.5 kPa | 988.4 ± 1.2 kg/m3
303.15 K, 203.8 kPa | 988.4 ± 1.2 kg/m3
303.15 K, 204 kPa | 988.5 ± 1.2 kg/m3
303.15 K, 204.5 kPa | 988.4 ± 1.2 kg/m3
303.15 K, 204.7 kPa | 988.4 ± 1.2 kg/m3
303.15 K, 204.9 kPa | 988.5 ± 1.2 kg/m3 and 988.6 ± 1.2 kg/m3
303.15 K, 205 kPa | 988.5 ± 1.2 kg/m3
303.15 K, 205.4 kPa | 988.5 ± 1.2 kg/m3 and 988.4 ± 1.2 kg/m3
303.15 K, 205.7 kPa | 988.5 ± 1.2 kg/m3 and 988.6 ± 1.2 kg/m3
303.15 K, 206.1 kPa | 988.5 ± 1.2 kg/m3
303.15 K, 206.2 kPa | 988.5 ± 1.2 kg/m3 and 988.4 ± 1.2 kg/m3
303.15 K, 206.4 kPa | 988.5 ± 1.2 kg/m3
303.15 K, 206.8 kPa | 988.4 ± 1.2 kg/m3
303.15 K, 206.9 kPa | 988.3 ± 1.2 kg/m3
303.15 K, 208.3 kPa | 988.4 ± 1.2 kg/m3
303.15 K, 208.7 kPa | 988.4 ± 1.2 kg/m3
303.15 K, 210.1 kPa | 988.5 ± 1.2 kg/m3 and 988.4 ± 1.2 kg/m3
303.15 K, 210.6 kPa | 988.5 ± 1.2 kg/m3
303.15 K, 210.9 kPa | 988.3 ± 1.2 kg/m3 and 988.4 ± 1.2 kg/m3
303.15 K, 211.1 kPa | 988.4 ± 1.2 kg/m3 and 988.5 ± 1.2 kg/m3 and 988.3 ± 1.2 kg/m3
303.15 K, 211.8 kPa | 988.5 ± 1.2 kg/m3 and 988.6 ± 1.2 kg/m3
303.15 K, 212 kPa | 988.5 ± 1.2 kg/m3
303.15 K, 212.3 kPa | 988.4 ± 1.2 kg/m3
303.15 K, 213.2 kPa | 988.4 ± 1.2 kg/m3
303.15 K, 213.6 kPa | 988.5 ± 1.2 kg/m3
303.15 K, 213.7 kPa | 988.6 ± 1.2 kg/m3
303.15 K, 214.1 kPa | 988.5 ± 1.2 kg/m3
303.15 K, 214.2 kPa | 988.5 ± 1.2 kg/m3
303.15 K, 214.4 kPa | 988.5 ± 1.2 kg/m3
303.15 K, 214.6 kPa | 988.6 ± 1.2 kg/m3
303.15 K, 214.8 kPa | 988.5 ± 1.2 kg/m3
303.15 K, 215.1 kPa | 988.4 ± 1.2 kg/m3
303.15 K, 215.5 kPa | 988.5 ± 1.2 kg/m3
303.15 K, 215.6 kPa | 988.4 ± 1.2 kg/m3 and 988.5 ± 1.2 kg/m3
303.15 K, 216 kPa | 988.5 ± 1.2 kg/m3
303.15 K, 216.2 kPa | 988.5 ± 1.2 kg/m3
303.15 K, 216.5 kPa | 988.5 ± 1.2 kg/m3
303.15 K, 216.7 kPa | 988.6 ± 1.2 kg/m3
303.15 K, 216.9 kPa | 988.5 ± 1.2 kg/m3
303.15 K, 217 kPa | 988.5 ± 1.2 kg/m3
303.15 K, 217.2 kPa | 988.4 ± 1.2 kg/m3
303.15 K, 217.7 kPa | 988.4 ± 1.2 kg/m3
303.15 K, 218.1 kPa | 988.5 ± 1.2 kg/m3
303.15 K, 218.2 kPa | 988.5 ± 1.2 kg/m3
303.15 K, 218.6 kPa | 988.5 ± 1.2 kg/m3
303.15 K, 219.1 kPa | 988.5 ± 1.2 kg/m3
303.15 K, 219.4 kPa | 988.6 ± 1.2 kg/m3
303.15 K, 219.6 kPa | 988.5 ± 1.2 kg/m3
303.15 K, 219.8 kPa | 988.4 ± 1.2 kg/m3
303.15 K, 220 kPa | 988.4 ± 1.2 kg/m3
303.15 K, 220.2 kPa | 988.4 ± 1.2 kg/m3
303.15 K, 220.3 kPa | 988.4 ± 1.2 kg/m3
303.15 K, 224.1 kPa | 988.4 ± 1.2 kg/m3
303.15 K, 224.8 kPa | 988.5 ± 1.2 kg/m3
303.15 K, 225.2 kPa | 988.4 ± 1.2 kg/m3
303.15 K, 225.4 kPa | 988.5 ± 1.2 kg/m3
303.15 K, 228.3 kPa | 988.6 ± 1.2 kg/m3
